Compound	melting point [°C]
Cn1nc(-c2c(Cl)cncc2Cl)nc1-c1ccc(Cl)cc1Cl [Compound 7]	79 to 81
Cn1nc(-c2c(Cl)cncc2Cl)nc1-c1ccncc1 [Compound 113]	130 to 132
Cn1nc(-c2c(Cl)cncc2Cl)nc1C1(C)CC1(Cl)Cl (centres unmarked) [Compound 133, 3-(3,5 dichloro-4-pyridyl)-5-(2,2-dichloro-1-methylcyclopropyl)-1-methyl[1,2,4]triazole]	79 to 83
Cn1nc(-c2nc(F)c(F)c(F)c2F)nc1-c1ccc(Cl)cc1 [Compound 155]	154 to 156
Cn1nc(-c2nc(Cl)ccc2Cl)nc1-c1ccc(Cl)cc1 [Compound 156]	98 to 102
Cn1nc(-c2ncc(Cl)cc2Cl)nc1-c1ccc(Cl)cc1 [Compound 158]	105 to 107
Cc1ccc(-c2nc(-c3ncccc3Cl)nn2C)cc1 [Compound 159]	113 to 117
Cc1nc(-c2c(Cl)cncc2Cl)nn1-c1ccc(Cl)cc1 [Example 19, 1-(4-Chlorophenyl)-5-methyl-3-(3,5-dichloro-4-pyridyl)-1H-1,2,4-triazole]	142 to 145
